One test deals with T1, Alpha-1D adrenergic receptor (Homo sapiens, UniProt P25100).
T1 sequence (P25100 whole entry): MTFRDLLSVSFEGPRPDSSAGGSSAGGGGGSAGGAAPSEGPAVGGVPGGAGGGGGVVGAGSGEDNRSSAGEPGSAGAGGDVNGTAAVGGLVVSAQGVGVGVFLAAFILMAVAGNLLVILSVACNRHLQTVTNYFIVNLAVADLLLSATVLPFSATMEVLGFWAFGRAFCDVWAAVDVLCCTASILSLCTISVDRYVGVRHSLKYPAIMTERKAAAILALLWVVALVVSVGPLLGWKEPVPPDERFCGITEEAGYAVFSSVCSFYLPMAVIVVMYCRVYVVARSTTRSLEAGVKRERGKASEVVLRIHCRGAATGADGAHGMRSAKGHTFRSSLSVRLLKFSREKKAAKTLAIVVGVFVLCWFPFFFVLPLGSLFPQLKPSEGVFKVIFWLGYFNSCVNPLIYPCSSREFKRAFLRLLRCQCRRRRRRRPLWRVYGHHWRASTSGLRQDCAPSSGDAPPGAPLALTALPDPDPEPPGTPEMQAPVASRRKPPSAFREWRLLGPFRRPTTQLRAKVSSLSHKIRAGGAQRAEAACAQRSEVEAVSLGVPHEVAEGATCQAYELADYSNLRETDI
Test: not given
The following applies: hek293. The format is cell membranes, HEK293, Membrane.
Platelet-activating factor receptor, sequence (P25105 whole entry): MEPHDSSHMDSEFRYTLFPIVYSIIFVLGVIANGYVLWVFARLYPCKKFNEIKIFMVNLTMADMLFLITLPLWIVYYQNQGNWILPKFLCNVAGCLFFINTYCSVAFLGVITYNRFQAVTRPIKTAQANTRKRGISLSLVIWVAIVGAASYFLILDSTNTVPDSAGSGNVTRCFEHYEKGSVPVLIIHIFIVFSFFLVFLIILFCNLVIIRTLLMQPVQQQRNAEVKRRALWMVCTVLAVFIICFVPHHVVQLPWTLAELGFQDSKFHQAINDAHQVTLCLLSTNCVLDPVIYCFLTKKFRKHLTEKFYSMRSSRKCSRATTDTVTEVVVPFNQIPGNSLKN
D(3) dopamine receptor, sequence (P35462 whole entry): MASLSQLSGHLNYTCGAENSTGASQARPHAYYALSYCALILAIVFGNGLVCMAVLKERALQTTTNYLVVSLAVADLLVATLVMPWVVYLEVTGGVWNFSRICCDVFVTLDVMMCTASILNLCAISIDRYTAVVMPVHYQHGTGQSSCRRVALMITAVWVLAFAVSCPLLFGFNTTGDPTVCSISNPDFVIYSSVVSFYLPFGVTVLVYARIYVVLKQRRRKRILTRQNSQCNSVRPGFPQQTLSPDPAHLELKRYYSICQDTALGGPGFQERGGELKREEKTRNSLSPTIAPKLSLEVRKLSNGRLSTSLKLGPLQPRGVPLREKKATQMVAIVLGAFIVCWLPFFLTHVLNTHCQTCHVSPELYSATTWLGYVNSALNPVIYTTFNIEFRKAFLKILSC
What is called IC50 is the concentration at which inhibition is half-maximal. For `CCCCCCCCCc1ccc(O)cc1` [4-NONYLPHENOL], the 50% inhibitory concentration (IC50) entry was “Not Active”.
Same read-out and setting: the same measure for `c1ccc2c(c1)cc1ccc3cccc4ccc2c1c34`: “Not Active”.

Staying with this test, now noted: read-out: IC50.
Consider `CNCCC=C1c2ccccc2CCc2ccccc21` [NORTRIPTYLINE], for which the IC50 is 273 nM.

Staying with this test, now noted: read-out: Ki.
A word on the Ki: it is the dissociation constant of the complex between target and ligand, obtained from inhibition or displacement. As to `CNCCC=C1c2ccccc2CCc2ccccc21` [NORTRIPTYLINE], the inhibition constant Ki was found to be 134 nM.

System in the next test: not listed separately
Put plainly: DRUGMATRIX: Calcium Channel Type L, Phenylalkylamine radioligand binding (ligand: [3H] (-)-Desmethoxyverapamil (D-888)). It counts as cell membranes, Rattus norvegicus, Wistar, Brain, Membrane. Conditions: Not Active = under 50% inhibition at 10 µM.
As for `CCCCCCCCCc1ccc(O)cc1` [4-NONYLPHENOL], the half-inhibitory concentration (IC50) entry was “Not Active” and the inhibitory constant (Ki) entry is “Not Active”.
For `c1ccc2c(c1)cc1ccc3cccc4ccc2c1c34`, the IC50 result is reported as “Not Active” and the Ki entry is reported as “Not Active”.

Still in this test, the particulars now being: Not Active = under 50% inhibition at 10 µM; read-out: IC50.
Consider `CNCCC=C1c2ccccc2CCc2ccccc21` [NORTRIPTYLINE], for which the IC50 was found to be 1890 nM.

The test is the same for the next values; noted with them: Not Active = under 50% inhibition at 10 µM; read-out: Ki.
`CNCCC=C1c2ccccc2CCc2ccccc21` [NORTRIPTYLINE]: the Ki amounted to 1840 nM.

Another test deals with Prostaglandin G/H synthase 1 (Homo sapiens, UniProt P23219). Put plainly: biochemical. The format is tissue-based, Platelet. Conditions: platelet.
Prostaglandin G/H synthase 1, sequence (P23219 whole entry): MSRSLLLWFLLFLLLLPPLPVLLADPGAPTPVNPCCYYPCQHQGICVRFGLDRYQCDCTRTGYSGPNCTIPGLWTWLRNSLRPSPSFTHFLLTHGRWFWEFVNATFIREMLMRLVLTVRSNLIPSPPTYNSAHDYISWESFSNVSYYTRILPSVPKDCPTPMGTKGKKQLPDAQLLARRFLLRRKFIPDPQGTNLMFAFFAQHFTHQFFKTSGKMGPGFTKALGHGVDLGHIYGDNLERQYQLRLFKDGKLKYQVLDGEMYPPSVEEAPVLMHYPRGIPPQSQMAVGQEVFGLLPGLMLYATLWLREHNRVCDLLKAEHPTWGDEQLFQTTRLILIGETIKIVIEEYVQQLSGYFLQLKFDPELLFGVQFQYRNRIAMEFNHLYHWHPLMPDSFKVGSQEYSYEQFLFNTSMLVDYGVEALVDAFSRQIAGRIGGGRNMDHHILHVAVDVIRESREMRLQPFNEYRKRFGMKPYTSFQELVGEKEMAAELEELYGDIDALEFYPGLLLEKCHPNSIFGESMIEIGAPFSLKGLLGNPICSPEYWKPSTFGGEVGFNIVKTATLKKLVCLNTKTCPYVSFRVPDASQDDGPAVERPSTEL
In the case of `CCCCCCCCCc1ccc(O)cc1` [4-NONYLPHENOL], the IC50 result is reported as “Not Active”.
As for `c1ccc2c(c1)cc1ccc3cccc4ccc2c1c34`, the half-inhibitory concentration (IC50) entry is reported as “Not Active”.
Take `CNCCC=C1c2ccccc2CCc2ccccc21` [NORTRIPTYLINE]: the IC50 result is listed as “Not Active”.

The next test has as its target D(3) dopamine receptor (Homo sapiens, UniProt P35462). In words: DRUGMATRIX: Dopamine D3 radioligand binding (ligand: [3H] Spiperone). The format is cell membranes, CHO, Membrane. Conditions: cho.
With `CCCCCCCCCc1ccc(O)cc1` [4-NONYLPHENOL], the concentration for half-maximal inhibition (IC50) result was “Not Active”.
Regarding `c1ccc2c(c1)cc1ccc3cccc4ccc2c1c34`, the IC50 result was “Not Active”.

The same test, now with this note: read-out: IC50.
For `CNCCC=C1c2ccccc2CCc2ccccc21` [NORTRIPTYLINE], the concentration for half-maximal inhibition (IC50) was 179 nM.

Staying with this test, now noted: read-out: Ki.
With `CNCCC=C1c2ccccc2CCc2ccccc21` [NORTRIPTYLINE], the Ki was 61 nM.

System in the next test: not listed separately
In words: DRUGMATRIX: Glutamate, NMDA, Agonism radioligand binding (ligand: [3H] CGP-39653). The format is cell membranes, Rattus norvegicus, Wistar, Cerebral cortex, Membrane. Conditions: Not Active = under 50% inhibition at 10 µM.
In the case of `CCCCCCCCCc1ccc(O)cc1` [4-NONYLPHENOL], the IC50 result is on record as “Not Active” and the Ki entry is on record as “Not Active”.
For the molecule `c1ccc2c(c1)cc1ccc3cccc4ccc2c1c34`, the IC50 result is recorded as “Not Active” and the Ki entry is “Not Active”.
`CNCCC=C1c2ccccc2CCc2ccccc21` [NORTRIPTYLINE]: the IC50 result was “Not Active” and the Ki result was “Not Active”.

System in the next test: not listed separately
In words: DRUGMATRIX: Glutamate, NMDA, Phencyclidine radioligand binding (ligand: [3H] TCP). The format is cell membranes, Rattus norvegicus, Wistar, Cerebral cortex, Membrane. The following applies: Not Active = under 50% inhibition at 10 µM.
On to `CCCCCCCCCc1ccc(O)cc1` [4-NONYLPHENOL], for which the IC50 entry is “Not Active” and the Ki entry is “Not Active”.
For `c1ccc2c(c1)cc1ccc3cccc4ccc2c1c34`, the IC50 result is “Not Active” and the Ki result is “Not Active”.
`CNCCC=C1c2ccccc2CCc2ccccc21` [NORTRIPTYLINE]: the half-inhibitory concentration (IC50) result is “Not Active” and the Ki result was “Not Active”.

The target of a further test is T2, 3-hydroxy-3-methylglutaryl-coenzyme A reductase (Homo sapiens, UniProt P04035).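 Note: enzyme inhibition assay of HMG-CoA reductase using radiolabeled [14C]HMG-CoA as substrate; in other assays of this panel Not Active means under 50% inhibition at 10 µM.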
T2 sequence (P04035 whole entry): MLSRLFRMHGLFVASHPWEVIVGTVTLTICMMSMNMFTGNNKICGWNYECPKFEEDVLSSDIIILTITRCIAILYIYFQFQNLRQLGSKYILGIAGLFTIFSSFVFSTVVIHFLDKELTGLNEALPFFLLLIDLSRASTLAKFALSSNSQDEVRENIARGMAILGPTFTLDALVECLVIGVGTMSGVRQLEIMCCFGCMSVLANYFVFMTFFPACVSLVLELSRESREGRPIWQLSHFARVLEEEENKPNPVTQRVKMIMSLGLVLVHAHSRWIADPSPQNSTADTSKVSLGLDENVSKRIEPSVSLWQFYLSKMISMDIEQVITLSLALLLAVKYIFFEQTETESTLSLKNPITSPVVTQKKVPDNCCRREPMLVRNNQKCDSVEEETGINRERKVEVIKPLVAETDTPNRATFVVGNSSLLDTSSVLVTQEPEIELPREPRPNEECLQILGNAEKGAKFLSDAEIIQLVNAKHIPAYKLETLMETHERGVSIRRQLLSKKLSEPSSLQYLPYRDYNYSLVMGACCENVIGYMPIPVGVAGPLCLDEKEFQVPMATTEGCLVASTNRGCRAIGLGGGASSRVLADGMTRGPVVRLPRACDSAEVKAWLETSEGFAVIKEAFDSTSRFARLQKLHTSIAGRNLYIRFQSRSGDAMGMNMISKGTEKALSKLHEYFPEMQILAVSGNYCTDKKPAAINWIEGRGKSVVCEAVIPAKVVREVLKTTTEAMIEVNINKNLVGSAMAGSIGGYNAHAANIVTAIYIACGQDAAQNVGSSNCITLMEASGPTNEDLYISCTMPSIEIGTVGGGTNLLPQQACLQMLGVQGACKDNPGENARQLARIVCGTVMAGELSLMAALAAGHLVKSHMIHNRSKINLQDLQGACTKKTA
Test: not given
Further details: species or system Escherichia coli.
Settings: not given
Regarding `CCCCCCCCCc1ccc(O)cc1` [4-NONYLPHENOL], the 50% inhibitory concentration (IC50) entry is “Not Active”.
Same read-out and setting: next, `c1ccc2c(c1)cc1ccc3cccc4ccc2c1c34`: “Not Active”.
Turning to `CNCCC=C1c2ccccc2CCc2ccccc21` [NORTRIPTYLINE], the IC50 entry was “Not Active”.

In another test the target is Melanocortin receptor 3 (Homo sapiens, UniProt P41968). Note: in other assays of this panel Not Active means under 50% inhibition at 10 µM.
Melanocortin receptor 3, sequence (P41968 whole entry): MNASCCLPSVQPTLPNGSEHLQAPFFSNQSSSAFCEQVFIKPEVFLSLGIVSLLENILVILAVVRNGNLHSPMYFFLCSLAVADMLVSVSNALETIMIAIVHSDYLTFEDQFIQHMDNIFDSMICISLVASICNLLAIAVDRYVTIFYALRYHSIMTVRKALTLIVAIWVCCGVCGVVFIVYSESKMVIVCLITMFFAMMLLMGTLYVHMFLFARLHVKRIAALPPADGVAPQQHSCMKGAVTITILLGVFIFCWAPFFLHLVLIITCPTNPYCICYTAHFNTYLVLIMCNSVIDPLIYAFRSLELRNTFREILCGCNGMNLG
Test: not given
The format is cell membranes, Membrane. The following applies: hek293.
On to `CCCCCCCCCc1ccc(O)cc1` [4-NONYLPHENOL], for which the IC50 result is given as “Not Active”.
Still for that read-out and setting: next, `c1ccc2c(c1)cc1ccc3cccc4ccc2c1c34`: “Not Active”.
On the same count and under the same terms, next, `CNCCC=C1c2ccccc2CCc2ccccc21` [NORTRIPTYLINE]: “Not Active”.

System in a further test: not listed separately
In words: DRUGMATRIX: Phosphodiesterase PDE4 enzyme inhibition (substrate: [3H]cAMP + cAMP). Conditions: u-937; Not Active = under 50% inhibition at 10 µM.
Consider `CCCCCCCCCc1ccc(O)cc1` [4-NONYLPHENOL], for which the half-maximal inhibitory concentration (IC50) result is on record as “Not Active” and the inhibition constant Ki entry is listed as “Not Active”.
As for `c1ccc2c(c1)cc1ccc3cccc4ccc2c1c34`, the IC50 result was “Not Active” and the Ki entry is given as “Not Active”.
Take `CNCCC=C1c2ccccc2CCc2ccccc21` [NORTRIPTYLINE]: the IC50 entry is reported as “Not Active” and the Ki result is “Not Active”.

The next test addresses Platelet-activating factor receptor (Homo sapiens, UniProt P25105). In words: biochemical. The following applies: platelet. The format is tissue-based.
Regarding `CCCCCCCCCc1ccc(O)cc1` [4-NONYLPHENOL], the IC50 result is reported as “Not Active”.
As to `c1ccc2c(c1)cc1ccc3cccc4ccc2c1c34`, the IC50 entry is “Not Active”.
On the same count and under the same terms, next, `CNCCC=C1c2ccccc2CCc2ccccc21` [NORTRIPTYLINE]: “Not Active”.

The next test has as its target T3, Interstitial collagenase (Homo sapiens, UniProt P03956).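 Note: MMP-1 enzyme inhibition assay using a peptide substrate; in other assays of this panel Not Active means under 50% inhibition at 10 µM.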
T3 sequence (P03956 whole entry): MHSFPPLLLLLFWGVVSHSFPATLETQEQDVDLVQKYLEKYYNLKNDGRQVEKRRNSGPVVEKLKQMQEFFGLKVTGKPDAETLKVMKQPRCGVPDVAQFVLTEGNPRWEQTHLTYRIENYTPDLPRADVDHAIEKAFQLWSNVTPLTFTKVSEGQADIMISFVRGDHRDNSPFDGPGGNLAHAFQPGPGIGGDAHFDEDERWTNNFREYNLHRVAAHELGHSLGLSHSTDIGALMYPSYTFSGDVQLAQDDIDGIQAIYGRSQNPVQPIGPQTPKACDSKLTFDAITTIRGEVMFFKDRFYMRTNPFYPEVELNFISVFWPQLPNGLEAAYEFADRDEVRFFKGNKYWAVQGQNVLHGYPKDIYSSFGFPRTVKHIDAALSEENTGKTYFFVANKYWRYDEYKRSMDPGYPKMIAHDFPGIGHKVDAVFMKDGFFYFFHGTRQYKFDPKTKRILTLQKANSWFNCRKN
Test: not given
The format is tissue-based, Rheumatoid synovial fibroblasts.
Settings: not given
Regarding `CCCCCCCCCc1ccc(O)cc1` [4-NONYLPHENOL], the half-maximal inhibitory concentration (IC50) result is recorded as “Not Active”.
On to `c1ccc2c(c1)cc1ccc3cccc4ccc2c1c34`, for which the half-maximal inhibitory concentration (IC50) entry is on record as “Not Active”.
On to `CNCCC=C1c2ccccc2CCc2ccccc21` [NORTRIPTYLINE], for which the 50% inhibitory concentration (IC50) entry was “Not Active”.

The target of the next test is Mitogen-activated protein kinase 1 (Homo sapiens, UniProt P28482). Put plainly: DRUGMATRIX: Protein Serine/Threonine Kinase, ERK2 enzyme inhibition (substrate: Myelin Basic Protein). Further details: species or system Escherichia coli. The following applies: Not Active = under 50% inhibition at 10 µM.
Mitogen-activated protein kinase 1, sequence (P28482 whole entry): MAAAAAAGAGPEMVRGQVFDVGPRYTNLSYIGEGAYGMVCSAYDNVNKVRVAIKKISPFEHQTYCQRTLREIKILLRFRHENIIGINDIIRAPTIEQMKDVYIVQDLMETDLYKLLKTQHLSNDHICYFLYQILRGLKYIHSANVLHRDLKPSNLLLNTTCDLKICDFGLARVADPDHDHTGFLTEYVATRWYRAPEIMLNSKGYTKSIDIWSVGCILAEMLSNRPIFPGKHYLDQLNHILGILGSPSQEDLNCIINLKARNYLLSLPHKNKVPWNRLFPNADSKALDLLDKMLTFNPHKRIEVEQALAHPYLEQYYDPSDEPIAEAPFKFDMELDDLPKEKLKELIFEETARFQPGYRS
In the case of `CCCCCCCCCc1ccc(O)cc1` [4-NONYLPHENOL], the half-maximal inhibitory concentration (IC50) result is reported as “Not Active”.
Still for that read-out and setting: the same measure for `c1ccc2c(c1)cc1ccc3cccc4ccc2c1c34`: “Not Active”; for `CNCCC=C1c2ccccc2CCc2ccccc21` [NORTRIPTYLINE]: “Not Active”.

The next test has as its target T4, Adenosine receptor A1 (Homo sapiens, UniProt P30542).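 Note: radioligand binding assay at the adenosine A1 receptor, with DPCPX serving as the labelled ligand; in other assays of this panel Not Active means under 50% inhibition at 10 µM.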
T4 sequence (P30542 whole entry): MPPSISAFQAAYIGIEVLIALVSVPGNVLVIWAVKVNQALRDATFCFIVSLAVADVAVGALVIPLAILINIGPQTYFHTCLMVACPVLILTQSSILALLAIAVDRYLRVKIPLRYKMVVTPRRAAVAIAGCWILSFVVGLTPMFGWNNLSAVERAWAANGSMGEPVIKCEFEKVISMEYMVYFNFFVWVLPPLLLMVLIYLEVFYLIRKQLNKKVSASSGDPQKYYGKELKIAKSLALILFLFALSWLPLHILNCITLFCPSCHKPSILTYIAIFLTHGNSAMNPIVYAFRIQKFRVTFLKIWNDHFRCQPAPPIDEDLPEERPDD
Test: not given
The format is cell membranes, CHO, Membrane. Conditions: cho.
On to `CCCCCCCCCc1ccc(O)cc1` [4-NONYLPHENOL], for which the 50% inhibitory concentration (IC50) result was “Not Active”.
Regarding `c1ccc2c(c1)cc1ccc3cccc4ccc2c1c34`, the IC50 entry is on record as “Not Active”.
Take `CNCCC=C1c2ccccc2CCc2ccccc21` [NORTRIPTYLINE]: the IC50 entry is given as “Not Active”.

Values taken from ChEMBL document CHEMBL1909046, “DrugMatrix in vitro pharmacology data”.
